Assay results: patent US7504537B2, “Hydroxamic acid derivative and MMP inhibitor containing the same as active ingredient” (Dainippon Sumitomo Pharma Co., Ltd., priority 2001, dated 2009)

Columns and labels:
[1] = system: degeneration of cartilage; assay: Test 8 Rat meniscectomy model test (in vivo); conditions: male SD (IGS) rats, 50 mg/kg orally once a day for 3 weeks; injured group = 100%
Method: Test 8 Rat Meniscectomy Model Test (in vivo)
For this test male rats (6 weeks old SD (IGS)) were used. A meniscus of joint of a right hind limb was partially removed. Compound of Example 2 was orally administered for 3 weeks once a day in the amount of 50 mg/kg. The tissue speciman of the joint was prepared, and stained with safranin O/first green, and the degeneration of cartilage was evaluated. The degree of the degeneration of cartilage in the test compound group was calculated as 100% of the degree of that in the injured group. Cartilage degeneration rate was 33% (*; p<0.05, Steel-test)

Adjuvant Arthritis = assay: Test 7 Adjuvant arthritis (in vivo); set-up: species or system rat; conditions: Lewis male rats, 50 mg/kg per os once a day for twelve days
Excerpt: Test 7 Adjuvant Arthritis (in vivo) For this test Lewis male rats were used. The suspension prepared by suspending Mycobacterium butyricum in liquid paraffin in concentration of 0.5% was subcutaneously injected in a right hind paw. Ten days later the rats in which the definite secondary inflammation on a left hind paw was observed were selected, and to the rats the compound (Example 2) suspended in 0.5% methyl cellulose was orally administered for twelve successive days once a day. Five hours later after finishing administration the volume of the hind paws was compared with the volume when the administration was initiated, and the inhibition activity of edema was evaluated based on this difference.

## CC(C)CN(C1(C(=O)NO)CCCC1)S(=O)(=O)c1ccc(Oc2ccc(S(C)(=O)=O)cc2)cc1 [Example 2, N-hydroxy 1-[isobutyl({4-[4-(methylsulfonyl)phenoxy]phenyl}sulfonyl)amino]cyclopentanecarboxamide]
[1]
  Cartilage degeneration rate: 33%
Adjuvant Arthritis; control 1.07 ± 0.31
  Increase of edema, Non injected limb: 0.74 ± 0.16 mL
Adjuvant Arthritis; control −0.24 ± 0.45
  Increase of edema, Injected limb: -1.06 ± 0.47 mL
